From patent US9758491B2, “Molecules having pesticidal utility, and intermediates, compositions, and processes, related thereto” (priority 2015, dated 2017)

What was measured:
Type in all cases: in vivo
[1] = test system: Beet Armyworm (Spodoptera exigua, LAPHEG); assay: Bioassay on Beet Armyworm (BAW), 128-well diet tray assay; settings: 168 h, 50 μg/cm^2 on artificial diet, second instar larvae, 25° C., five to seven days, average of eight wells, read-out: BAW rating, % Control (or Mortality)
Description: (§1) Certain molecules disclosed in this document were tested against BAW and CL using procedures described in the following examples. In the reporting of the results, the “BAW & CL Rating Table” was used (See Table Section).
Bioassays on BAW were conducted using a 128-well diet tray assay. One to five second instar BAW larvae were placed in each well (3 mL) of the diet tray that had been previously filled with 1 mL of artificial diet to which 50 μg/cm^2 of the test molecule (dissolved in 50 μL of 90:10 acetone-water mixture) had been applied (to each of eight wells) and then allowed to dry. Trays were covered with a clear self-adhesive cover, vented to allow gas exchange, and held at 25° C., 14:10 light-dark for five to seven days. Percent mortality was recorded for the larvae in each well; activity in the eight wells was then averaged. The results are indicated in the table entitled “Table ABC: Biological Results” (See Table Section).

[2] = test system: Cabbage Looper (Trichoplusia ni, TRIPNI); assay: Bioassay on Cabbage Looper (CL), 128-well diet tray assay; settings: 168 h, 50 μg/cm^2 on artificial diet, second instar larvae, 25° C., five to seven days, average of eight wells, read-out: CL rating, % Control (or Mortality)
Description: as §1
Bioassays on CL were conducted using a 128-well diet tray assay. One to five second instar CL larvae were placed in each well (3 mL) of the diet tray that had been previously filled with 1 mL of artificial diet to which 50 μg/cm^2 of the test molecule (dissolved in 50 μL of 90:10 acetone-water mixture) had been applied (to each of eight wells) and then allowed to dry. Trays were covered with a clear self-adhesive cover, vented to allow gas exchange, and held at 25° C., 14:10 light-dark for five to seven days. Percent mortality was recorded for the larvae in each well; activity in the eight wells was then averaged. The results are indicated in the table entitled “Table ABC: Biological Results” (See Table Section).

[3] = test system: Yellow Fever Mosquito (Aedes aegypti, AEDSAE); assay: Bioassay on Yellow Fever Mosquito (YFM) larvae, 96-well plate; settings: 4000 ppm DMSO master solution diluted, about 1 day-old larvae, room temperature, scored after 3 days
Description: Certain molecules disclosed in this document were tested against YFM using procedures described in the following paragraph. In the reporting of the results, the “YFM Rating Table” was used (See Table Section).
Master plates containing 400 μg of a molecule dissolved in 100 μL of dimethyl sulfoxide (DMSO) (equivalent to a 4000 ppm solution) are used. A master plate of assembled molecules contains 15 μL per well. To this plate, 135 μL of a 90:10 water/acetone mixture is added to each well. A robot (Biomek® NXP Laboratory Automation Workstation) is programmed to dispense 15 μL aspirations from the master plate into an empty 96-well shallow plate (“daughter” plate). There are 6 reps (“daughter” plates) created per master. The created “daughter” plates are then immediately infested with YFM larvae.
The day before plates are to be treated, mosquito eggs are placed in Millipore water containing liver powder to begin hatching (4 g into 400 mL). After the “daughter” plates are created using the robot, they are infested with 220 μL of the liver powder/larval mosquito mixture (about 1 day-old larvae). After plates are infested with mosquito larvae, a non-evaporative lid is used to cover the plate to reduce drying. Plates are held at room temperature for 3 days prior to grading. After 3 days, each well is observed and scored based on mortality. The results are indicated in the table entitled “Table ABC: Biological Results” (See Table Section).

COc1cccc(N2CCN/C2=N\C(=O)Nc2ccc(-c3ncn(-c4ccc(OC(F)(F)F)cc4)n3)cc2)c1 [F20, (E)-1-(1-(3-Methoxyphenyl)imidazolidin-2-ylidene)-3-(4-(1-(4-(trifluoromethoxy)phenyl)-1H-1,2,4-triazol-3-yl)phenyl)urea]
mortality at 50 µg/cm2 [1]: 50 to 100% | mortality at 50 µg/cm2 [2]: 50 to 100% | YFM rating, % Control (or Mortality) [3]: A (80-100)

COc1ccc(N2CCN/C2=N\C(=O)Nc2ccc(-c3ncn(-c4ccc(OC(F)(F)F)cc4)n3)cc2)cc1 [F21, (E)-1-(1-(4-Methoxyphenyl)imidazolidin-2-ylidene)-3-(4-(1-(4-(trifluoromethoxy)phenyl)-1H-1,2,4-triazol-3-yl)phenyl)urea]
mortality at 50 µg/cm2 [1]: 50 to 100% | mortality at 50 µg/cm2 [2]: 50 to 100% | YFM rating, % Control (or Mortality) [3]: A (80-100)
